Counter-ions that a name gives are not always drawn.
System: PRKACA-PRKAR2A interaction (SmBiT-PRKACA / LgBiT-PRKAR2A), protein kinase A
Parameters: NanoLuc complementation counter-screen in cell extract, PRKACA with PRKAR2A, loss of luminescence, detects NanoLuc interference
Conditions: counter-screen for NanoLuc interference; 0.5 h, 20 µM; inhibitor

| Inh (PKA) | SMILES |
| --- | --- |
| 5.692% | CN1CCC(=C2c3ccccc3CC(=O)c3sccc32)CC1 [UM0133795:02, Ketotifen Fumarate] |
| 21.07% | Cc1ccc(Cl)c(Nc2ccccc2C(=O)O)c1Cl [UM0133818:02, Meclofenamate Sodium] |
| -0.01503% | Cc1[nH]c(=O)c(C#N)cc1-c1ccncc1 [UM0133819:02, Milrinone] |
| 24.67% | O=c1cc(-c2ccc(O)cc2)oc2cc(O)cc(O)c12 [UM0133861:02, Apigenin] |
| 69.13% | COc1ccc(-c2coc3cc(O)cc(O)c3c2=O)cc1 [UM0133867:02, Biochanin A] |
| 52.51% | O=C(/C=C/c1ccc(O)c(O)c1)c1ccc(O)cc1O [UM0133869:02, Butein] |
| 25.55% | O=c1cc(-c2ccc(O)c(O)c2)oc2cc(O)cc(O)c12 [UM0133934:02, Luteolin] |
| 47.98% | O=c1c(O)c(-c2cc(O)c(O)c(O)c2)oc2cc(O)cc(O)c12 [UM0133944:02, Myricetin] |
| 20.28% | C[C@H]1COC2=C1C(=O)C(=O)c1c2ccc2c1CCCC2(C)C [UM0134017:02, Cryptotanshinone] |
| 2.167% | COc1c2occc2cc2ccc(=O)oc12 [UM0134068:02, 8-Methoxypsoralen] |
| 4.329% | CN1C(C(=O)Nc2ccccn2)=C(O)c2ccccc2S1(=O)=O [UM0134086:02, Piroxicam] |
| 9.08% | Cc1ccc(C(=O)Cn2c3c(sc2=N)CCCC3)cc1 [UM0134099:02, Pifithrin-?] |
| 1.329% | Clc1cccc(Cl)c1NC1=NCCN1 [UM0134172:02, Clonidine HCl] |
| 0.9494% | c1ccc(CN(CC2=NCCN2)c2ccccc2)cc1 [UM0134174:02, Antazoline HCl] |
| 25.72% | O=C1CN(/N=C/c2ccc(-c3ccc([N+](=O)[O-])cc3)o2)C(=O)N1 [UM0134180:02, Dantrolene, sodium salt] |
| 0.401% | O=C(NCCN1CCOCC1)c1ccc(Cl)cc1 [UM0134186:02, Moclobemide (Ro 111163)] |
| -2.961% | C[C@H]1O[C@@H](O[C@H]2[C@@H](O)C[C@H](O[C@H]3[C@@H](O)C[C@H](O[C@H]4CC[C@@]5(C)[C@H](CC[C@@H]6[C@@H]5C[C@@H](O)[C@]5(C)[C@@H](C7=CC(=O)OC7)CC[C@]65O)C4)O[C@@H]3C)O[C@@H]2C)C[C@H](O)[C@@H]1O [UM0134205:02, Digoxin] |
| 4.382% | CCC1=C(C)CN(C(=O)NCCc2ccc(S(=O)(=O)NC(=O)N[C@H]3CC[C@H](C)CC3)cc2)C1=O [UM0134252:02, Glimepiride] |
| 9.677% | CC1(C)[C@@H](OC(=O)CCC(=O)O)CC[C@]2(C)[C@H]3C(=O)C=C4[C@@H]5C[C@@](C)(C(=O)O)CC[C@]5(C)CC[C@@]4(C)[C@]3(C)CC[C@@H]12 [UM0134288:02, Carbenoxolone disodium] |
| 16.1% | C#C[C@]1(OC(C)=O)CC[C@H]2[C@@H]3CCC4=C[C@@H](OC(C)=O)CC[C@@H]4[C@H]3CC[C@@]21C [UM0134301:02, Ethynodiol diacetate] |

| SMILES | Inh (PKA) |
| --- | --- |
| CC1=C2C[C@H]3[C@@H](CC=C4C[C@@H](O)CC[C@@]43C)[C@@H]2CC[C@]12O[C@@H]1C[C@H](C)CN[C@H]1[C@H]2C [UM0133766:02, Cyclopamine] | 2.445% |
| C/C(O)=C(\C#N)C(=O)Nc1cc(Br)ccc1Br [UM0133802:02, LFM-A13] | 54.46% |
| CC1=CC(=O)c2c(O)cccc2C1=O [UM0133960:02, Plumbagin] | 19.95% |
| Cc1nc2n(c(=O)c1CCN1CCC(c3noc4cc(F)ccc34)CC1)CCCC2 [UM0134126:02, Risperidone] | 4.965% |
| C[C@@H]1O[C@@H](O[C@H]2C[C@@H](O)[C@]3(CO)[C@H]4[C@H](O)C[C@]5(C)[C@@H](C6=CC(=O)OC6)CC[C@]5(O)[C@@H]4CC[C@]3(O)C2)[C@H](O)[C@H](O)[C@H]1O [UM0134215:02, Ouabain] | 0.8032% |
